# Laboratory results as given in patent US20200325543A1, “DIAGNOSTIC METHOD” (TOLREMO THERAPEUTICS AG, priority 2017, published 2020).
# Several values for one entry are separate records, joined by “and”; a condition that tells them apart may be missing. Equal entries are not always repeated. Structures can show the parent of a compound that is named as a salt. Where two headings read alike, the source gives them in different places.
# Tested on: SOX2
# Assay: Screen of a library of FDA-approved drugs for SOX2 antibody staining in A375 cells treated with PLX4720 and AZD6244
# Details: for norm: signal after plate normalization; for cor. loess: normalized and geometry-corrected (loess) signal
# [1] = A375 cells, 5 uM test drug with 1 uM PLX4720 and 0.5 uM AZD6244, 24 h, raw signal (ratio of FL2 SOX2 antibody and FL3 nuclear staining), screen run in duplicate
# [2] = A375 cells, 5 uM test drug with 1 uM PLX4720 and 0.5 uM AZD6244, 24 h
# [3] = Z-test against negative controls (DMSO), single dose 5 uM
Molecule,raw [1],norm [2],z [3],cor. loess [2],raw,z
CCCCCCc1ccc(O)cc1O.Nc1c2ccccc2nc2ccccc12 [ACRISORCIN],0.9675 and 0.9751,0.7754 and 0.5959,4.872 and 7.943,,,
ABAMECTIN [ABAMECTIN (avermectin B1a shown)],0.9779,0.5009,4.925,0.4606,,
O=c1[nH]c(=O)n([C@H]2C[C@H](O)[C@@H](CO)O2)cc1C(F)(F)F [TRIFLURIDINE],0.9796,0.4485,5.969,0.4387,,
CO[C@H]1/C=C/O[C@@]2(C)Oc3c(C)c(O)c4c(O)c(c(/C=N/N5CCN(C)CC5)c(O)c4c3C2=O)NC(=O)/C(C)=C\C=C\[C@H](C)[C@H](O)[C@@H](C)[C@@H](O)[C@@H](C)[C@H](OC(C)=O)[C@@H]1C [RIFAMPIN],0.9792,0.4925,3.454,0.4025,,
CCOC(=O)COc1ccc2c(=O)cc(-c3ccccc3)oc2c1 [EFLOXATE],0.955,1.397,5.713,1.468,,
COC(=O)Nc1nc2ccc(C(=O)c3cccs3)cc2[nH]1 [NOCODAZOLE],0.9766,0.5009,3.142,0.5311,,
COc1ccc2cc1Oc1ccc(cc1)C[C@H]1c3cc(c(OC)cc3CCN1C)Oc1c(OC)c(OC)cc3c1[C@H](C2)N(C)CC3 [Tetrandrine],0.9619,1.018,7.2,1.018,,
CCN(CC)CCNC(=O)c1c(C)[nH]c(/C=C2\C(=O)Nc3ccc(F)cc32)c1C [Sunitinib],0.9775,0.514,5.758,0.5385,,
CC(=O)OCC(=O)[C@@]1(O)CC[C@H]2[C@@H]3CCC4=CC(=O)CC[C@]4(C)[C@@]3(F)[C@@H](O)C[C@@]21C [FLUDROCORTISONE ACETATE],0.977,0.5063,3.773,0.4578,,
CC(=O)N[C@@H](CC(C)C)C(=O)O [ACETYL-L-LEUCINE],0.9737,0.5922,6.41,0.5782,,
CC(=O)O[C@H]1C[C@H](O[C@H]2[C@@H](O)C[C@H](O[C@H]3[C@@H](O)C[C@H](O[C@H]4CC[C@@]5(C)[C@H](CC[C@@H]6[C@@H]5C[C@@H](O)[C@]5(C)[C@@H](C7=CC(=O)OC7)CC[C@]65O)C4)O[C@@H]3C)O[C@@H]2C)O[C@H](C)[C@H]1O[C@@H]1O[C@H](CO)[C@@H](O)[C@H](O)[C@H]1O [LANATOSIDE C],0.9723 and 0.963,0.4949,,1.074 and 1.059,,
CCCSc1ccc2nc(NC(=O)OC)[nH]c2c1 [ALBENDAZOLE],,0.3992,5.411,0.3977,0.9811,
CN(C)Cc1ccc(S(=O)(=O)n2ccc(/C=C/C(=O)NO)c2)cc1 [Resminostat],0.9656,0.8939,6.242,0.8,,
C[C@H]1O[C@@H](O[C@H]2[C@@H](O)C[C@H](O[C@H]3[C@@H](O)C[C@H](O[C@H]4CC[C@@]5(C)[C@H](CC[C@@H]6[C@@H]5C[C@@H](O)[C@]5(C)[C@@H](C7=CC(=O)OC7)CC[C@]65O)C4)O[C@@H]3C)O[C@@H]2C)C[C@H](O)[C@@H]1O [DIGOXIN],0.9433,1.668,13.38,1.623,,
C[CH2][Hg][S]c1ccccc1C(=O)[O-].[Na+] [THIMEROSAL],,,,,0.9726 and 0.8663,
IVERMECTIN,0.9726,0.6393,3.761,0.6358,,
Cc1cnc(Nc2ccc(OCCN3CCCC3)cc2)nc1Nc1cccc(S(=O)(=O)NC(C)(C)C)c1 [TG101348 (SAR302503)],0.9608,1.142,5.665,1.471,,
COC(=O)Nc1nc2ccc(Sc3ccccc3)cc2[nH]1 [FENBENDAZOLE],0.9808,0.4377,4.041,0.4709,,
Cc1cn(-c2cc(NC(=O)c3ccc(C)c(Nc4nccc(-c5cnccn5)n4)c3)cc(C(F)(F)F)c2)cn1 [Radotinib],0.9713,0.7194,7.683,0.7186,,
Oc1cc(Cl)ccc1Oc1ccc(Cl)cc1Cl [TRICLOSAN],0.9753,0.5438,3.141,0.531,,

Molecule,raw [1],norm [2],z [3],cor. loess [2],raw,z
CCCOc1ccc2nc(NC(=O)OC)[nH]c2c1 [OXIBENDAZOLE],0.9763,0.5578,6.505,0.4781,,
OC1(c2ccc(Cl)c(C(F)(F)F)c2)CCN(CCCC(c2ccc(F)cc2)c2ccc(F)cc2)CC1 [PENFLURIDOL],0.9179,2.491,30.59,2.248,,
Cc1cc(C(C)(C)CC(C)(C)C)ccc1OCCOCC[N+](C)(C)Cc1ccccc1.[Cl-] [METHYLBENZETHONIUM CHLORIDE],0.9826,0.3484,4.049,0.2976,,
O=C(Oc1cccc2cccnc12)c1ccccc1 [BENZOXIQUINE],0.9731,0.6197,3.458,0.5846,,
O=C(CCCCCCC(=O)Nc1ccccc1)NO [VORINOSTAT],0.9634,0.984,13.43,0.9868,,
CO[C@H]1C[C@@H]2CC[C@@H](C)[C@@](O)(O2)C(=O)C(=O)N2CCCC[C@H]2C(=O)O[C@H]([C@H](C)C[C@@H]2CC[C@@H](O)[C@H](OC)C2)CC(=O)[C@H](C)/C=C(\C)[C@@H](O)[C@@H](OC)C(=O)[C@H](C)C[C@H](C)/C=C/C=C/C=C/1C [SIROLIMUS],0.9808,0.4075,4.314,0.3171,,
O=[N+]([O-])C(Br)(CO)CO [BRONOPOL],0.9779,0.4505,4.996,0.4507,,
O=C(Nc1ccc([N+](=O)[O-])cc1Cl)c1cc(Cl)ccc1O [NICLOSAMIDE],0.97,0.7648,9.828,0.7224,,
CC1(C)O[C@@H]2C[C@H]3[C@@H]4CCC5=CC(=O)CC[C@]5(C)[C@@]4(F)[C@@H](O)C[C@]3(C)[C@]2(C(=O)CCl)O1 [HALCINONIDE],0.9853,0.2586,3.581,0.2632,,
CN(C)c1ccc2nc3ccc(=[N+](C)C)cc-3sc2c1 [METHYLENE BLUE],0.9751,0.5531,3.072,0.5193,,
CC[C@H]1CN2CCc3cc(OC)c(OC)cc3[C@@H]2C[C@@H]1C[C@H]1NCCc2cc(OC)c(OC)cc21 [EMETINE DIHYDROCHLORIDE],0.9485,1.489,,1.429,,11.78
CC(=O)OCC(=O)[C@@]1(O)CC[C@H]2[C@@H]3CCC4=CC(=O)C=C[C@]4(C)[C@H]3[C@@H](O)C[C@@]21C [PREDNISOLONE ACETATE],0.9772,0.4997,3.871,0.4697,,
"CC[C@@H](C(=O)[C@@H](C)[C@@H](O)[C@H](C)[C@@H]1O[C@@H]([C@@H](CC)C(=O)O)CC[C@@H]1C)[C@H]1O[C@]2(C=C[C@@H](O)[C@]3(CC[C@@](C)([C@H]4CC[C@](O)(CC)[C@H](C)O4)O3)O2)[C@H](C)C[C@@H]1C [SALINOMYCIN, SODIUM]",0.9671,0.8129,8.891,0.802,,
CCCC(=O)O[C@]1(C(=O)COC(C)=O)CC[C@H]2[C@@H]3C[C@H](F)C4=CC(=O)C=C[C@]4(C)[C@@]3(F)[C@@H](O)C[C@@]21C [Difluprednate],0.9801,0.4293,4.842,0.4529,,
"CCC(=O)OCC(=O)[C@@]1(OC(=O)CC)[C@@H](C)C[C@H]2[C@@H]3CCC4=CC(=O)C=C[C@]4(C)[C@@]3(F)[C@@H](O)C[C@@]21C [BETAMETHASONE 17,21-DIPROPIONATE]",0.9801,0.4336,5.927,0.4356,,
C[C@@H]1O[C@@H](O[C@@H]2C=C3CC[C@@H]4[C@H](CC[C@]5(C)[C@@H](c6ccc(=O)oc6)CC[C@]45O)[C@@]3(C)CC2)[C@H](O)[C@H](O)[C@H]1O [PROSCILLARIDIN A],0.9787,0.4294,3.007,0.5083,,
CCC(=O)O[C@]1(C(=O)CCl)[C@@H](C)C[C@H]2[C@@H]3CCC4=CC(=O)C=C[C@]4(C)[C@@]3(F)[C@@H](O)C[C@@]21C [CLOBETASOL PROPIONATE],0.9794,0.4554,5.471,0.4021,,
"CCOc1cc2ncc(C#N)c(Nc3ccc(OCc4ccccn4)c(Cl)c3)c2cc1NC(=O)/C=C/CN(C)C [Neratinib (HKI-272), Neratinib]",0.9044,4.156,16.11,4.182,,
Aprotinin,0.9662,0.9994,4.093,1.14,,
"Nc1ccccc1NC(=O)c1ccc(CNC(=O)OCc2cccnc2)cc1 [Entinostat (MS-275), Entinostat]",0.9672,0.8427,5.41,0.6933,,
